This note sets out measurements from patent US6809070B2, “Toilet bar having a latent acidifier” (Unilever Home & Personal Care USA, division of Conopco, Inc., priority 2001, dated 2004).

Data set [1] can be described thus: Aqueous slurry pH (10% slurry, 25 C). The class given is physicochemical. How it is done:
Various inventive and comparative compounds were formulated with three separate toilet bar bases, 1, 2, and 3 at the 10% by wt. level and their aqueous slurry pH (see method below) was compared to a control shown in table 1. Inventive latent acidifiers are designated “I” and comparative compounds are designated “C”. The bar bases were formulated by blending all ingredients except the latent acidifier for about 30-40 minutes at temperatures of 180-230 F. After that, the latent acidifier is added and mixed for another few minutes until a uniform mixture is obtained. […] The latent acidifier could also be added in the chip mixer after the batch has been cooled and solidified in a spray dryer or a chill roll. This is followed by extrusion and stamping into a bar.
Method for Measuring Aqueous Slurry pH
Nine grams of the base formula and one gram of the latent acidifier (or a comparative compound) were blended together with 90 g of water to create a 10% slurry. The pH of the slurry was then measured at 25 C.

A short description of data set [2]: pH of 1% by wt. aqueous solutions. The class given is physicochemical.
Setting [3] is: compound at 10% by wt. in toilet bar Base 1, 10% slurry, 25 C.
Where [4] appears, read: compound at 10% by wt. in toilet bar Base 2, 10% slurry, 25 C.
Where [5] appears, read: compound at 10% by wt. in toilet bar Base 3, 10% slurry, 25 C.
[6] abbreviates: 1% by wt. aqueous solution of the compound.

Where two headings read alike, the source gives them in different places.

As for `CC(=O)O.N` [Ammonium Acetate], in data set [1], the “Aqueous slurry pH, Base 1” value is 6.8; the “Aqueous slurry pH, Base 2” value is recorded as 8.9; the “Aqueous slurry pH, Base 3” value came to 9.5. Also, the “pH of 1% Solution” value in data set [2] (pH 1) is recorded as 6.9.

`Cl.N` [Ammonium Chloride]: the “Aqueous slurry pH, Base 1” value in data set [1] (setting [3]) came to 6.5. Further, the “Aqueous slurry pH, Base 2” value in data set [1] (setting [4]) is 8.7. The “Aqueous slurry pH, Base 3” value in data set [1] (setting [5]) stood at 9.1. Moreover, the “pH of 1% Solution” value in data set [2] (setting [6]) is 4.9.

Consider `N.N.N.O=P(O)(O)O` [Ammonium Phosphate], for which, in data set [1], the “Aqueous slurry pH, Base 1” value was 6.1; the “Aqueous slurry pH, Base 2” value is reported as 7.6; the “Aqueous slurry pH, Base 3” value stood at 8.7. Further, the “pH of 1% Solution” value in data set [2] (pH 1) worked out at 4.2.

Consider `N.N.O=S(=O)(O)O` [Ammonium Sulfate], for which the “Aqueous slurry pH, Base 1” value in data set [1] (setting [3]) is on record as 6.7. Besides, in data set [1] (setting [4]), the “Aqueous slurry pH, Base 2” value is listed as 8.9. The “Aqueous slurry pH, Base 3” value in data set [1] (setting [5]) stood at 9.4. Moreover, the “pH of 1% Solution” value in data set [2] (setting [6]) was 5.0.

As for `CC(=O)[O-].CC(=O)[O-].[Ca+2]` [Calcium Acetate], in data set [1], the “Aqueous slurry pH, Base 1” value was determined as 5.2; the “Aqueous slurry pH, Base 2” value was 8.1; the “Aqueous slurry pH, Base 3” value is 10.1. The “pH of 1% Solution” value in data set [2] (pH 1) is on record as 8.2.

With `O=C([O-])[O-].[Ca+2]` [Calcium Carbonate, reference compound], in data set [1], the “Aqueous slurry pH, Base 1” value was 7.0; the “Aqueous slurry pH, Base 2” value was 9.0; the “Aqueous slurry pH, Base 3” value is recorded as 10.6. The “pH of 1% Solution” value in data set [2] (pH 1) worked out at 9.2.

As for `[Ca+2].[Cl-].[Cl-]` [Calcium Chloride], in data set [1], the “Aqueous slurry pH, Base 1” value is listed as 4.2; the “Aqueous slurry pH, Base 2” value is listed as 6.9; the “Aqueous slurry pH, Base 3” value came to 9.8. In data set [2] (pH 1), the “pH of 1% Solution” value is 9.3.

For `[Ca+2].[OH-].[OH-]` [Calcium Hydroxide, reference compound], in data set [1], the “Aqueous slurry pH, Base 1” value was found to be 11.9; the “Aqueous slurry pH, Base 2” value turned out to be 12.1; the “Aqueous slurry pH, Base 3” value is on record as 11.9. The “pH of 1% Solution” value in data set [2] (pH 1) is on record as 11.8.

As to `O=[N+]([O-])[O-].O=[N+]([O-])[O-].[Ca+2]` [Calcium Nitrate], in data set [1], the “Aqueous slurry pH, Base 1” value stood at 5.2; the “Aqueous slurry pH, Base 2” value stood at 8.6; the “Aqueous slurry pH, Base 3” value came to 10.1. The “pH of 1% Solution” value in data set [2] (pH 1) is on record as 5.3.

As for `O=S(=O)([O-])[O-].[Ca+2]` [Calcium Sulfate], in data set [1], the “Aqueous slurry pH of bars” value is listed as “significant drop in pH”; the “Aqueous slurry pH, Base 1” value came out at 4.9; the “Aqueous slurry pH, Base 2” value amounted to 8.8; the “Aqueous slurry pH, Base 3” value was 10.2. Also, in data set [1], the Latent acidification effect entry was “latent acidification effect”.

For the compound `O=S(=O)([O-])[O-].O=S(=O)([O-])[O-].O=S(=O)([O-])[O-].[Fe+3].[Fe+3]` [Ferric Sulfate], in data set [1], the “Aqueous slurry pH, Base 1” value was determined as 1.5; the “Aqueous slurry pH, Base 2” value turned out to be 7.5; the “Aqueous slurry pH, Base 3” value is on record as 9.1. Besides, the “pH of 1% Solution” value in data set [2] (pH 1) came out at 1.7.

As to `[Cl-].[Cl-].[Mg+2]` [Magnesium Chloride], in data set [1], the “Aqueous slurry pH, Base 1” value was 5.9; the “Aqueous slurry pH, Base 2” value is reported as 8.4; the “Aqueous slurry pH, Base 3” value worked out at 10.0. Moreover, the “pH of 1% Solution” value in data set [2] (pH 1) was determined as 5.2.

For `O=S(=O)([O-])[O-].[Mg+2]` [Magnesium Sulfate], in data set [1], the “Aqueous slurry pH, Base 1” value stood at 6.2; the “Aqueous slurry pH, Base 2” value worked out at 8.6; the “Aqueous slurry pH, Base 3” value is recorded as 10.2. Moreover, the “pH of 1% Solution” value in data set [2] (pH 1) was found to be 6.5.

Consider `O=C([O-])O.[Na+]` [Sodium Bicarbonate, reference compound], for which the “Aqueous slurry pH, Base 1” value in data set [1] (setting [3]) was 7.5. Also, in data set [1] (setting [4]), the “Aqueous slurry pH, Base 2” value is 8.8. Moreover, the “Aqueous slurry pH, Base 3” value in data set [1] (setting [5]) is 9.4. In addition, the “pH of 1% Solution” value in data set [2] (setting [6]) worked out at 8.3.

As to `[Cl-].[Na+]` [Sodium Chloride, reference compound], the “Aqueous slurry pH, Base 1” value in data set [1] (setting [3]) is recorded as 6.7. In addition, in data set [1] (setting [4]), the “Aqueous slurry pH, Base 2” value is listed as 8.7. In addition, the “Aqueous slurry pH, Base 3” value in data set [1] (setting [5]) is 10.1. Moreover, the “pH of 1% Solution” value in data set [2] (setting [6]) was found to be 8.1.

As to `O=P(O)(O)O` [Sodium Phosphate, reference compound], in data set [1], the “Aqueous slurry pH, Base 1” value is reported as 7.2; the “Aqueous slurry pH, Base 2” value was determined as 8.9; the “Aqueous slurry pH, Base 3” value is recorded as 10.2. The “pH of 1% Solution” value in data set [2] (pH 1) is 9.1.

As to `O=S(=O)([O-])[O-].[Na+].[Na+]` [Sodium Sulfate, reference compound], in data set [1], the “Aqueous slurry pH, Base 1” value stood at 6.9; the “Aqueous slurry pH, Base 2” value is on record as 8.9; the “Aqueous slurry pH, Base 3” value is given as 10.3. Moreover, the “pH of 1% Solution” value in data set [2] (pH 1) is 9.1.

Take Calcium Phosphate: in data set [1], the “Aqueous slurry pH, Base 1” value is recorded as 5.4; the “Aqueous slurry pH, Base 2” value stood at 7.2; the “Aqueous slurry pH, Base 3” value is 8.6. Moreover, in data set [2] (pH 1), the “pH of 1% Solution” value came out at 3.7.
